This is an account of results in patent US11021479B2, “Pyridoquinazoline derivatives useful as protein kinase inhibitors” (ONCOSTELLAE, S.L., priority 2017, dated 2021).

SMILES strings stand for the structures.

Holding throughout (format): biochemical
One assay concerns the target T1, JAK1 (Homo sapiens, UniProt P23458).
T1 construct: purchased Carna Biosciences 08-144
Kind of assay: Functional assay of protein Janus kinases (Caliper mobility shift), JAK1. As to conditions: ATP 100 μM, incubation 150 min; read-out: JAK1 enzymatic activity (IC50) score. As for the experimental part: (§1) The functional assays of protein Janus kinases were carried out in 384-well plates using a final volume of 30 μl. […] The reaction was reads in a “Caliper EzReader LabChip 3000” (Caliper, Hopkinton, Mass.) reader, based on electrophoretic mobility of the fluorescent substrate and the phosphorylated product.
(§2) The inhibition percentages were calculated by comparison between control reactions, for 100% of inhibition and reactions with only DMSO for 0% of inhibition.

The target of another assay is T2, JAK2 (Homo sapiens, UniProt O60674).
T2 construct: purchased Carna Biosciences 08-045
Kind of assay: Functional assay of protein Janus kinases (Caliper mobility shift), JAK2. As to conditions: ATP 300 μM, incubation 30 min; read-out: JAK2 enzymatic activity (IC50) score. As for the experimental part: as §1, §2

In a further assay the target is T3, JAK3 (Homo sapiens, UniProt P52333).
T3 construct: purchased Carna Biosciences 08-046
Kind of assay: Functional assay of protein Janus kinases (Caliper mobility shift), JAK3. To be noted: ATP 8 μM, incubation 30 min; read-out: JAK3 enzymatic activity (IC50) score. As for the experimental part:
as §1, §2

A further assay concerns the target T4, TYK2 (Homo sapiens, UniProt P29597).
T4 construct: purchased Carna Biosciences 08-147
T4 sequence (P29597 871-1187 limits assumed): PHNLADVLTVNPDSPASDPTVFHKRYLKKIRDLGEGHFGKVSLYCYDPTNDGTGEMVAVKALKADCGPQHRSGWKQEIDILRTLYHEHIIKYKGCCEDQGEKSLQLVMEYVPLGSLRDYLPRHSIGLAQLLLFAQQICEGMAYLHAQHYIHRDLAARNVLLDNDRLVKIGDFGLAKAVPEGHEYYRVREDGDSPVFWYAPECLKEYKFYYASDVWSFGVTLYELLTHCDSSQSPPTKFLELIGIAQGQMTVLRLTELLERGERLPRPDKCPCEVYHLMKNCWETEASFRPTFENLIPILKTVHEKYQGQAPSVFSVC
In words: Functional assay of protein Janus kinases (Caliper mobility shift), TYK2. As to conditions: ATP 20 μM, incubation 45 min; read-out: TYK2 enzymatic activity (IC50) score. As for the experimental part:
as §1, §2

T1 sequence (P23458 850-1154 limits assumed): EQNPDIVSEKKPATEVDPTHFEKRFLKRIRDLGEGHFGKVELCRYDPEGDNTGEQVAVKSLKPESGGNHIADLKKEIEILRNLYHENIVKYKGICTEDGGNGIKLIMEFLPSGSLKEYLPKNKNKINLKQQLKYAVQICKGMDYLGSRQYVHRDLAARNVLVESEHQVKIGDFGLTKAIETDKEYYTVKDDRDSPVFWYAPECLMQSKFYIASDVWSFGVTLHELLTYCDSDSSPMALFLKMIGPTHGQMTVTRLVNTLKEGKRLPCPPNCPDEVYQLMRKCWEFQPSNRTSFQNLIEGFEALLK
T3 sequence (P52333 795-1124 limits assumed): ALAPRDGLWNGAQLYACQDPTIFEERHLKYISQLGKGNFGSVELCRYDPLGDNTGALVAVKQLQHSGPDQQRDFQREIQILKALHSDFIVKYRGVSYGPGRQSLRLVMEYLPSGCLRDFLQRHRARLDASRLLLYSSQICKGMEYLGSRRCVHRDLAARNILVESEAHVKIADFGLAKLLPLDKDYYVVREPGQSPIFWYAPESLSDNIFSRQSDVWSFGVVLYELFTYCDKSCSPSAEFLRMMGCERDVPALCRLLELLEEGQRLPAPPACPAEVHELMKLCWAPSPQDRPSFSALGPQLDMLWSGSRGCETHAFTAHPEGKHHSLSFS
T2 sequence (O60674 826-1132 limits assumed): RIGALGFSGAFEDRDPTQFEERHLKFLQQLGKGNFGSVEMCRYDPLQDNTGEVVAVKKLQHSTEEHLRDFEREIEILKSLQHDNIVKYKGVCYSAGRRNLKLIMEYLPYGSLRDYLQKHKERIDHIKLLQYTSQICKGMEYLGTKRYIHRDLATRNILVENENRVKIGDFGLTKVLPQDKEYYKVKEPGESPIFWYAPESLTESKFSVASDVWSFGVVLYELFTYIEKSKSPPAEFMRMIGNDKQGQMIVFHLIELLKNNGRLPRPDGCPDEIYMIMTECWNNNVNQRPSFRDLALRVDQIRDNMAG

What is called IC50 is the concentration that gives 50% inhibition. In the case of `CN1CCC(NC(=O)c2cccn3c(=O)c4cc(C5CC5)ccc4nc23)CC1` [Example 3, 2-cyclopropyl-N-(1-methylpiperidin-4-yl)-11-oxo-11H-pyrido[2,1-b]quinazoline-6-carboxamide], the IC50 was greater than 1000 nM on JAK1, greater than 1000 nM at JAK2, 100 to 1000 nM at JAK3 and greater than 1000 nM at TYK2.
Regarding `O=C(NC1CCOCC1)c1cccn2c(=O)c3cc(C4CC4)ccc3nc12` [Example 4, 2-cyclopropyl-11-oxo-N-(tetrahydro-2H-pyran-4-yl)-11H-pyrido[2,1-b]quinazoline-6-carboxamide], the IC50 at JAK1 was greater than 1000 nM; at JAK2, greater than 1000 nM; at JAK3, 100 to 1000 nM; at TYK2, less than 100 nM.
Take `CC1COCCC1NC(=O)c1cccn2c(=O)c3cc(C4CC4)ccc3nc12` (centres unmarked) [Example 5, 2-cyclopropyl-N-(3-methyltetrahydro-2H-pyran-4-yl)-11-oxo-11H-pyrido[2,1-b]quinazoline-6-carboxamide]: the IC50 is greater than 1000 nM on JAK1, greater than 1000 nM at JAK2, less than 100 nM on JAK3 and less than 100 nM at TYK2.
Turning to `C[C@]1(O)CC[C@H](NC(=O)c2cccn3c(=O)c4cc(C5CC5)ccc4nc23)CC1` [Example 6, 2-cyclopropyl-N-((1R,4R)-4-hydroxy-4-methylcyclohexyl)-11-oxo-11H-pyrido[2,1-b]quinazoline-6-carboxamide], the IC50 at JAK1 is greater than 1000 nM; at JAK2 it was greater than 1000 nM; on JAK3, less than 100 nM; at TYK2, less than 100 nM.
In the case of `O=C(N[C@H]1CC[C@H](O)CC1)c1cccn2c(=O)c3cc(C4CC4)ccc3nc12` [Example 7, 2-cyclopropyl-N-((1R,4R)-4-hydroxycyclohexyl)-11-oxo-11H-pyrido[2,1-b]quinazoline-6-carboxamide], the IC50 at JAK1 was greater than 1000 nM; at JAK2, greater than 1000 nM; at JAK3 it was less than 100 nM; at TYK2, 100 to 1000 nM.
For the compound `O=C(NC1CCCCC1O)c1cccn2c(=O)c3cc(C4CC4)ccc3nc12` (centres unmarked) [Example 8, 2-cyclopropyl-N-(2-hydroxycyclohexyl)-11-oxo-11H-pyrido[2,1-b]quinazoline-6-carboxamide], the IC50 at JAK1 was greater than 1000 nM; at JAK2, greater than 1000 nM; on JAK3, 100 to 1000 nM; on TYK2, less than 100 nM.
For `O=C(N[C@@H]1CCCC[C@H]1O)c1cccn2c(=O)c3cc(C4CC4)ccc3nc12` [Example 9, 2-cyclopropyl-N-((1R,2R)-2-hydroxycyclohexyl)-11-oxo-11H-pyrido[2,1-b]quinazoline-6-carboxamide], the IC50 on JAK1 was greater than 1000 nM; on JAK2, greater than 1000 nM; at JAK3 it was 100 to 1000 nM; on TYK2 it was greater than 1000 nM.
`O=C(N[C@H]1CCCC[C@H]1O)c1cccn2c(=O)c3cc(C4CC4)ccc3nc12` [Example 10, 2-cyclopropyl-N-((1S,2R)-2-hydroxycyclohexyl)-11-oxo-11H-pyrido[2,1-b]quinazoline-6-carboxamide]: the IC50 was greater than 1000 nM at JAK1, greater than 1000 nM at JAK2, less than 100 nM on JAK3 and less than 100 nM on TYK2.
Consider `O=C(N[C@@H]1CCCC[C@@H]1O)c1cccn2c(=O)c3cc(C4CC4)ccc3nc12` [Example 11, 2-cyclopropyl-N-((1R,2S)-2-hydroxycyclohexyl)-11-oxo-11H-pyrido[2,1-b]quinazoline-6-carboxamide], for which the half-inhibitory concentration (IC50) on JAK1 is greater than 1000 nM; at JAK2 it was greater than 1000 nM; at JAK3, less than 100 nM; on TYK2, 100 to 1000 nM.
As for `O=C(N[C@H]1CCCC[C@@H]1O)c1cccn2c(=O)c3cc(C4CC4)ccc3nc12` [Example 12, 2-cyclopropyl-N-((1S,2S)-2-hydroxycyclohexyl)-11-oxo-11H-pyrido[2,1-b]quinazoline-6-carboxamide], the IC50 at JAK1 is greater than 1000 nM; at JAK2 it was greater than 1000 nM; at JAK3 it was 100 to 1000 nM; at TYK2 it was 100 to 1000 nM.
On to `O=C(NC1CCOC1)c1cccn2c(=O)c3cc(C4CC4)ccc3nc12` (centres unmarked) [Example 14, 2-cyclopropyl-11-oxo-N-(tetrahydrofuran-3-yl)-11H-pyrido[2,1-b]quinazoline-6-carboxamide], for which the IC50 on JAK1 is greater than 1000 nM; at JAK2 it was greater than 1000 nM; on JAK3 it was 100 to 1000 nM; at TYK2 it was less than 100 nM.
For the compound `O=C(NC1CCC(F)(F)CC1)c1cccn2c(=O)c3cc(C4CC4)ccc3nc12` [Example 15, 2-cyclopropyl-N-(4,4-difluorocyclohexyl)-11-oxo-11H-pyrido[2,1-b]quinazoline-6-carboxamide], the IC50 is greater than 1000 nM on JAK1, greater than 1000 nM at JAK2, less than 100 nM at JAK3 and 100 to 1000 nM on TYK2.
For the compound `O=C(NC1CCCC1)c1cccn2c(=O)c3cc(O)ccc3nc12` [Example 18, N-cyclopentyl-2-hydroxy-11-oxo-11H-pyrido[2,1-b]quinazoline-6-carboxamide], the IC50 was greater than 1000 nM at JAK1, greater than 1000 nM at JAK2, 100 to 1000 nM on JAK3 and less than 100 nM on TYK2.
For the compound `O=C(NC1CCCCC1)c1cccn2c(=O)c3cc(F)ccc3nc12` [Example 24, N-cyclohexyl-2-fluoro-11-oxo-11H-pyrido[2,1-b]quinazoline-6-carboxamide], the IC50 was greater than 1000 nM at JAK1, greater than 1000 nM at JAK2, 100 to 1000 nM at JAK3 and 100 to 1000 nM at TYK2.
In the case of `O=C(NC1CCCC1)c1cccn2c(=O)c3cc(Br)ccc3nc12` [Example 25, 2-bromo-N-cyclopentyl-11-oxo-11H-pyrido[2,1-b]quinazoline-6-carboxamide], the IC50 on JAK1 was greater than 1000 nM; on JAK2 it was greater than 1000 nM; at JAK3, less than 100 nM; on TYK2, less than 100 nM.
On to `O=C(NC1CCCCC1)c1cccn2c(=O)c3cc(Br)ccc3nc12` [Example 26, 2-bromo-N-cyclohexyl-11-oxo-11H-pyrido[2,1-b]quinazoline-6-carboxamide], for which the IC50 was greater than 1000 nM on JAK1, greater than 1000 nM at JAK2, 100 to 1000 nM on JAK3 and 100 to 1000 nM on TYK2.
As for `O=C(N[C@H]1CCCC[C@H]1O)c1cccn2c(=O)c3cc(Br)ccc3nc12` [Example 27, 2-bromo-N-((1S,2R)-2-hydroxycyclohexyl)-11-oxo-11H-pyrido[2,1-b]quinazoline-6-carboxamide], the IC50 on JAK1 was greater than 1000 nM; at JAK2 it was greater than 1000 nM; at JAK3 it was 100 to 1000 nM; at TYK2 it was 100 to 1000 nM.
With `O=C(NC1CCCCC1)c1cccn2c(=O)c3cc(-c4ccccc4)ccc3nc12` [Example 28, N-cyclohexyl-11-oxo-2-phenyl-11H-pyrido[2,1-b]quinazoline-6-carboxamide], the IC50 at JAK1 is greater than 1000 nM; on JAK2, greater than 1000 nM; on JAK3 it was 100 to 1000 nM; on TYK2, 100 to 1000 nM.
For the compound `CN1CCN(c2ccc3nc4c(C(=O)N[C@H]5CCCC[C@H]5O)cccn4c(=O)c3c2)CC1` [Example 37, N-((1S,2R)-2-hydroxycyclohexyl)-2-(4-methylpiperazin-1-yl)-11-oxo-11H-pyrido[2,1-b]quinazoline-6-carboxamide], the IC50 on JAK3 is 100 to 1000 nM; on TYK2, less than 100 nM.
